Source: patent US11993576B2, “N-benzyl-N-arylsulfonamide derivative and preparation and use thereof” (Hangzhou Yirui Pharmaceutical Technology Co., Ltd, priority 2019, dated 2024)
Entries after “also recorded” stand apart in the source; their conditions may differ.

Experiments:
[1] = target: human Kv1.3 (Homo sapiens, UniProt P22001); test: IonWorks automated patch clamp assay of inhibitory activity against Kv1.3; format: cell-based; conditions: automated patch clamp method; CHO-K1 cells stably expressing human Kv1.3
Chain of human Kv1.3 (P22001 whole entry): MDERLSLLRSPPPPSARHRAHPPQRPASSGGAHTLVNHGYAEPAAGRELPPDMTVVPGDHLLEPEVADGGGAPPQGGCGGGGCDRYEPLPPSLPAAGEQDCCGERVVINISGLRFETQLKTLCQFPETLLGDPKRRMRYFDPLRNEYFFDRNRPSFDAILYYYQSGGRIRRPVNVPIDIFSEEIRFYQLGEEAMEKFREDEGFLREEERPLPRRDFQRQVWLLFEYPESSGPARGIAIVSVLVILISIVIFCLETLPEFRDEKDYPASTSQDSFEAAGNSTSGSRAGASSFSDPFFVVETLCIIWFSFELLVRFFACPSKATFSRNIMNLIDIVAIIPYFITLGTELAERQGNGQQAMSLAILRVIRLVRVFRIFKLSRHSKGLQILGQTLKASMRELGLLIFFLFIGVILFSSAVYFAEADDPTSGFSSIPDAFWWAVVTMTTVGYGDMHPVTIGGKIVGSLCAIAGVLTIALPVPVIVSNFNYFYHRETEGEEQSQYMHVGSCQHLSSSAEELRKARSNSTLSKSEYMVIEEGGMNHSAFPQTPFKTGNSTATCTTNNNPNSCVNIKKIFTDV
Protocol: I. IonWorks Automated Patch Clamp Assay of Inhibitory Activity Against Kv1.3
The principle and method for Kv1.3 IonWorks assay can be found in Schroeder et al. [Schroeder et al. J Biomol Screen 2003, 8(1):50-64]
Inhibitory activity of the compounds against Kv1.3 was assessed using a CHO-K1 recombinant cell line stably expressing human Kv1.3 (Charles River, Calif.). The cells were cultured in an F-12K culture medium containing 5% calf serum (Invitrogen, Carlsbad. Calif.) in an incubator at 37° C. and under air humidity with 6% CO2. Prior to be fed in the IonWorks system, the adherent cells were treated with Versene at 37° C. for 6-7 min. After gently beating the culture flask, the cells were re-suspended in a PBS phosphate buffer, and then were centrifuged at 50×g for 4 min. After a short grinding, the cells were eventually re-suspended in an external recording solution at a density of approximately 1×10^6/mL.
The compounds were dissolved in DMSO to formulate a final assay concentration of 300× on the master plate. The final gradient assay concentrations were […], 0.096, 0.048, 0.24, 1.2, 6 and 30 μM. All 300× stock solutions of each compound in DMSO were transferred to a 384-well plate with 2 μl per well. The plates were sealed and stored at −80° C. until the day of assay.
On the day of assay, the plates were each thawed at room temperature. After centrifugation, 198 μl of the external recording solution (with the components of: 130 mM Na-Gluconate, 20 mM NaCl, 4 mM KCl, 1 mM MgCl2, 1.8 mM CaCl2, 5 mM Glucose and 10 mM HEPES, pH7.3) was added and mixed thoroughly. This step provided a 1:100 dilution for the compounds. After addition of cells to IonWorks, a further 1:3 dilution was carried out, resulting in a total dilution of 1:300. At least 8 wells were reserved as blank control on each of the plates, i.e., containing only 0.3% DMSO. In addition, at least 8 wells were reserved as positive control to detect the specificity to cell signals. Fluoxetine, a compound as the positive control, was assayed at its maximum blocking concentration (100 μm) and secondary maximum blocking concentration (10 μm). In addition, an internal recording solution used in the assay (with the components of: 100 mM K-gluconate, 40 mM KCl, 1 mM MgCl2, 1 mM EGTA and 10 mM HEPES, pH7.3) contained Amphotericin B at a final concentration of 200 μg/mL to gain current channels inside the cells. The osmotic pressure of the solution was adjusted with sucrose.
Experimental procedures were carried out following the protocols as set by IonWorks Quattro system (Molecular Devices, San Jose, CA). The current of human Kv1.3 was elicited to 0 millivolt (mV) for four times by a pulse lasting 1 second. A potential of −80 mV was maintained between pulses, for 5 seconds. First, a early voltage application program was started in the IonWorks Quattro system, and then the compounds were added and incubated for 600 seconds. Next, a late voltage application program was started until completion of all assays.
The maximum peak outward currents both before and after addition of the compounds as well as the average tail current elicited when the fourth pulse rose to 0 mV were measured. The inhibitory activity of the compounds against Kv1.3 can be calculated by dividing the measured current amplitude after addition of the compounds by the measured current amplitude before addition of the compounds.
All data was calibrated by a data filtration program of the IonWorks Quattro system. The filtration standard was that: seal quality >30 MΩ, decrease of seal resistance <50% and current amplitude >200 pA.

[2] = tested on: rat model of psoriasis induced by imiquimod; test: Rat model of psoriasis induced by imiquimod; format: in vivo; conditions: Wista female rats; for pathological analysis of skin (HE×100): skin lesions of the back collected on day 11, FIG. 3
Protocol: V. Effects of Compound 24 on a Rat Model of Psoriasis Induced by Imiquimod
SPF Wista female rats with body weight of around 200 g were used.
Dexamethasone (DXMS) sodium phosphate injection, 5 mg/ml/injection (Shiyao Yinhu Pharmaceutical Co., Ltd.); 5% imiquimod cream, 0.25 g/pack (Sichuan MED-SHINE Pharmaceutical Co., Ltd.); 3×10^6 U recombinant human interferon α-2a injection, 1.0 ml/vial (Shenyang Sunshine Pharmaceutical Co., Ltd.); vehicle and negative control: acetone/DMSO 9:1 (Vehicle).
3.1 The animals were randomly divided into 6 groups based on body weight with 10 animals per group: normal control group, model control group, positive control group (dexamethasone sodium phosphate injection 5 mg/mL), 1% Compound 24 group, 0.3% Compound 24 group and 0.1% Compound 24 group.
3.2 Modelling and administration: after adaptive feeding for several days, for each of the rats, hair in central area of the back (2 cm×2 cm) was shaved, and then the surface short hair was shaved with mild depilatory cream, washed and dried. If hair on the back grew out again during the experiment, the hair was removed with a razor. Every morning, for the rats in model control group and administration groups, 5% imiquimod cream was evenly applied on the back at 20 mg/cm^2 (0.25 g/pack, for 3 rats), and after 10 min, recombinant human interferon α-2a injection was injected intraperitoneally at 10,000 U/500 g; for the normal control group, the rats were not treated, once a day, for 10 days. In the afternoon, for the rats in the administration groups, drugs were applied at a corresponding dose (drugs with corresponding concentrations were applied on the back at 100 μL/rat, twice, 50 μL each time) once a day for 10 days.
3.3 Psoriasis Area and Severity Index (PASI) score: according to PASI scoring standard, a score of 0-4 was given for erythema, scale and epidermal thickening of infiltration in the lesional skin of rats. The scoring criteria was as follows: 0, none; 1, mild; 2, moderate; 3, severe; 4, extremely severe. For the rats in each of the groups, the scores were averaged and changes in skin lesions of the rats were observed.
3.4 HE staining: after completion of modeling (on day 11), the tissues with skin lesions on the back of rats were collected, fixed with 4% neutral formaldehyde, embedded in paraffin, and sectioned. After HE staining, changes in skin histomorphology were observed under a microscope, and Baker scoring was performed. […]
3.5 Statistical Methods: all data was expressed as mean±standard deviation (x±s). […]

| IC50 [1] [nM] | SMILES | also measured |
| --- | --- | --- |
| 86 | CCCS(=O)(=O)N(Cc1ccc(Cl)cc1)c1ccc(N2CCN(C(=O)OCC)CC2)c(C#N)c1 [Compound 24] | PASI score ([2]; 1%, 0.3%, 0.1% applied on the back once a day for 10 days, FIG. 2A): had a significant effect on psoriasis in a dose-dependent manner; also recorded: exhibited a significant efficacy on psoriasis in a dose-dependent manner; Baker score ([2]; 1%, 0.3%, 0.1% applied on the back once a day for 10 days, HE staining day 11, FIG. 2B): had a significant effect on psoriasis in a dose-dependent manner; also recorded: exhibited a significant efficacy on psoriasis in a dose-dependent manner; pathological analysis of skin (HE×100) [2]: had a significant effect on psoriasis in a dose-dependent manner; pathological analysis of skin (HE×100) ([2]; listed as compound 24): the skin structure was intact, the granular layer was visible, the skin was partly lengthened and clubbed, no acanthosis was observed, and a small amount infiltration of inflammatory cells was observed in the dermis |
| 1260 | N#Cc1cc(N(Cc2ccccc2)S(=O)(=O)c2ccccc2)ccc1N1C(=O)CCCC1=O [Compound 16, N-benzyl-N-(3-cyano-4-(2,6-dioxopiperidin-1-yl)phenyl)benzenesulfonamide] | – |
| 439 | CCCS(=O)(=O)N(Cc1ccc(OC)cc1F)c1ccc(N2CCN(C(=O)OCC)CC2)c(C#N)c1 [Compound 29, Ethyl 4-(2-cyano-4-(N-(2-fluoro-4-methoxybenzyl)propanesulfonamido)phenyl)piperazin-1-formate] | – |
| 107 | CCOC(=O)N1CCN(c2ccc(N(Cc3ccc(F)c(OC)c3)S(=O)(=O)c3ccc(F)cc3)cc2C#N)CC1 [Compound 3, ethyl 4-(2-cyano-4-((4-fluoro-N-(4-fluoro-3-methoxybenzyl)phenyl)sulfonamido)phenyl)piperazin-1-formate] | – |
| 124 | CN(C)S(=O)(=O)N1CCN(c2ccc(N(Cc3ccc(F)cc3F)S(=O)(=O)CC3CC3)cc2C#N)CC1 [Compound 47, 4-(2-cyano-4-((1-cyclopropyl-N-(2,4-difluorobenzyl)methyl)sulfonamido)phenyl)-N,N-dimethylpiperazin-1-sulfonamide] | – |
| 6400 | CCOC(=O)N1CCN(c2ccc(N(CC(C)C)S(=O)(=O)c3ccccc3)cc2C#N)CC1 [Compound 13, ethyl 4-(2-cyano-4-(N-isobutylphenylsulfonamido)phenyl)piperazin-1-formate] | – |
| 160 | CCCS(=O)(=O)N(Cc1ccc(F)cc1)c1ccc(NC2CCN(C(C)=O)CC2)c(C#N)c1 [Compound 55, N-(4-((1-acetylpiperidin-4-yl)amino)-3-cyanophenyl)-N-(4-fluorobenzyl)propanesulfonamide] | – |
| 131 | CCOC(=O)N1CCN(c2ccc(N(Cc3ccc(F)cc3)S(=O)(=O)c3ccc(F)cc3)cc2C#N)CC1 [Compound 2, ethyl 4-(2-cyano-4-((4-fluoro-N-(4-fluorobenzyl)phenyl)sulfonamido)phenyl)piperazin-1-formate] | – |
| 101 | CCCCS(=O)(=O)N(Cc1ccc(F)cc1)c1ccc(N2CCN(C(=O)N(C)C)CC2)c(C#N)c1 [Compound 38, 4-(2-cyano-4-(N-(4-fluorobenzyl)butanesulfonamido)phenyl)-N,N-dimethylpiperazin-1-formamide] | – |
| 279 | CCCS(=O)(=O)N(Cc1ccc(F)cc1)c1ccc(NC2CCN(C=O)CC2)c(C#N)c1 [Compound 58, N-(4-((1-formylpiperidin-4-yl)amino)-3-cyanophenyl)-N-(4-fluoro-benzyl)propanesulfonamide] | – |
| 124 | CCS(=O)(=O)N(Cc1ccc(F)cc1)c1ccc(N2CCN(S(=O)(=O)N(C)C)CC2)c(C#N)c1 [Compound 43, 4-(2-cyano-4-(N-(4-fluorobenzyl)ethanesulfonamido)phenyl)-N,N-dimethylpiperazin-1-sulfonamide] | – |
| 131 | CCCS(=O)(=O)N(Cc1ccncc1)c1ccc(N2CCN(C(=O)N(C)C)CC2)c(C#N)c1 [Compound 41, 4-(2-cyano-4-(N-(pyridin-4-ylmethyl)propanesulfonamido)phenyl)-N,N-dimethylpiperazin-1-formamide] | – |
